Laboratory results published in paper PMC10485003, “Antibiotic hyper-resistance in a class I aminoacyl-tRNA synthetase with altered active site signature motif” (Nature Communications, 2023).
“And” between values parts separate entries of the source, which are not always exact repeats. Equal values may be shown once. Read-outs that look alike come from different tables or passages of the source.

Target: T1, wt-ALHH DrIleRS2 (Deinococcus radiodurans, UniProt Q9RUP8)
T1 construct: hexa-histidine tag (pET28b(+)) (N); made in house; host or cells: E. coli BL21(DE3)
T1 sequence (Q9RUP8 whole entry): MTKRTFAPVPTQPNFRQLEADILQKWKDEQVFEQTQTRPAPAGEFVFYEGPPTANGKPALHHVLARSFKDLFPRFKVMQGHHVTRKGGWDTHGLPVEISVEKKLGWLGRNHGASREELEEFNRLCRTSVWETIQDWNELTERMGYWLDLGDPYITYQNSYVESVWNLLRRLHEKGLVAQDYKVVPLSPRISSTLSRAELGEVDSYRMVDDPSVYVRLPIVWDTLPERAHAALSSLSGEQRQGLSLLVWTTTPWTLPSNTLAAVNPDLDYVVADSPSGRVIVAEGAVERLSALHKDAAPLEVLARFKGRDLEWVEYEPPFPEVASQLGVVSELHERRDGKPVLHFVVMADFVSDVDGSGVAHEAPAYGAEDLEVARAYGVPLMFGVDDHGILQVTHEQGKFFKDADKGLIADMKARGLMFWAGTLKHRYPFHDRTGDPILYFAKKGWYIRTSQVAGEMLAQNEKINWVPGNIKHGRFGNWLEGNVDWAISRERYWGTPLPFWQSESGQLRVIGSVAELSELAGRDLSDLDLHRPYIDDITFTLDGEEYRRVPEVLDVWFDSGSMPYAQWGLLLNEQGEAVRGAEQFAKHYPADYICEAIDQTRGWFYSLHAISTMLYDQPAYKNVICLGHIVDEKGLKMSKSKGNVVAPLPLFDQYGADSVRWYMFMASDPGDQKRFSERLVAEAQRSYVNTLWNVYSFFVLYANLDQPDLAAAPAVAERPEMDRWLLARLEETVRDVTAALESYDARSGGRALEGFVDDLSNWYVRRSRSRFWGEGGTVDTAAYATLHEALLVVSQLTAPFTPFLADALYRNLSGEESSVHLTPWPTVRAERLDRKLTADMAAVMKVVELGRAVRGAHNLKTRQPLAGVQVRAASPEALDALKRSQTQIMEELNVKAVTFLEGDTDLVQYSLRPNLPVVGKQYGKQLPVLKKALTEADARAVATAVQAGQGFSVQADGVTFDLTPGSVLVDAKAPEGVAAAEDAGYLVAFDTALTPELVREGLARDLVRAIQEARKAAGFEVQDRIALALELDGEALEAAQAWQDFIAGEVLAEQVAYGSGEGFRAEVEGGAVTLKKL
Assay: ATP-PPi exchange assay, mupirocin inhibition of amino acid activation
Assay type: biochemical
Experimental: L-Ile and ATP concentrations ranged from 1/10 KM to 10 KM values. When measuring the KI towards one of the substrates, the other was held in saturation (concentrations at least 10 KM). The aliquots of the reaction mixture (1–2.5 μl) were quenched in 2 volumes of 500 mM NaOAc pH = 4.5, 0.1% SDS, and formed ^32P-ATP was separated from the remaining ^32P-PPi by thin-layer chromatography on Polygram CEL 300 PEI UV254 TLC plates (Macherey-Nagel, cat: 801063) using 750 mM KH2PO4 pH=3.5, 4 M urea buffer. Visualization and quantification of the signals was performed using a Typhoon Phosphoimager 5 (General Electric) and accompanying ImageQuant™ TL software (SV: 10.2). The kinetic constants were determined using a global fit option of the competitive inhibition model of GraphPad Prism 6 software (SV: 6.01). All experiments were performed in triplicates. The kcat was determined by dividing the maximal velocity, VM, with the used enzyme concentration. […]
variable substrate (ATP or Ile) was varied in the range of 0.1 KM to 10 KM. The other substrate (Ile or ATP) was kept in excess at 5 to 10 KM. Data were globally fitted to the competitive inhibition model using GraphPad prism 6.01 for Windows software. The values represent the average value ± SD of three independent experiments. Source data are provided as a Source Data file.

## C/C(=C\C(=O)OCCCCCCCCC(=O)O)C[C@@H]1OC[C@H](C[C@@H]2O[C@H]2[C@@H](C)[C@H](C)O)[C@@H](O)[C@H]1O [mupirocin]
Amino acid activation assay, ATP as variable substrate, average ± SD of three independent experiments, read-out: KI (MUP)ATP
  Ki: 7.7 ± 0.4 mM
Amino acid activation step, ATP/PPi exchange assay, Ile varied, ATP saturating, average ± SD of three independent experiments, read-out: KI (MUP)Ile
  Ki: 6.6 ± 0.4 mM
Amino acid activation step, with respect to both Ile and ATP
  mode of inhibition: classical competitive inhibition
c(mupirocin) 2.0 mM, c(Ile) 10.0 μM
  initial velocity vo: 0.0067 mM/min and 0.00769 mM/min and 0.00782 mM/min
c(mupirocin) 2.0 mM, c(Ile) 20.0 μM
  initial velocity vo: 0.01324 mM/min and 0.01288 mM/min and 0.01298 mM/min
c(mupirocin) 2.0 mM, c(Ile) 40.0 μM
  initial velocity vo: 0.02028 mM/min and 0.02243 mM/min and 0.02046 mM/min
c(mupirocin) 5.0 mM, c(ATP) 1.0 mM
  initial velocity vo: 0.03528 mM/min and 0.03566 mM/min and 0.03641 mM/min
c(mupirocin) 5.0 mM, c(ATP) 2.5 mM
  initial velocity vo: 0.04751 mM/min and 0.04951 mM/min and 0.05105 mM/min
c(mupirocin) 5.0 mM, c(ATP) 5.0 mM
  initial velocity vo: 0.05659 mM/min and 0.05544 mM/min and 0.05848 mM/min
c(mupirocin) 5.0 mM, c(ATP) 10.0 mM
  initial velocity vo: 0.05987 mM/min and 0.05899 mM/min and 0.06477 mM/min
c(mupirocin) 5.0 mM, c(Ile) 10.0 μM
  initial velocity vo: 0.00848 mM/min and 0.00805 mM/min and 0.00714 mM/min
c(mupirocin) 5.0 mM, c(Ile) 20.0 μM
  initial velocity vo: 0.01178 mM/min and 0.01222 mM/min and 0.01149 mM/min
c(mupirocin) 5.0 mM, c(Ile) 40.0 μM
  initial velocity vo: 0.01921 mM/min and 0.02111 mM/min and 0.01863 mM/min
c(mupirocin) 10.0 mM, c(ATP) 1.0 mM
  initial velocity vo: 0.02957 mM/min and 0.02811 mM/min and 0.02952 mM/min
c(mupirocin) 10.0 mM, c(ATP) 2.5 mM
  initial velocity vo: 0.04461 mM/min and 0.04583 mM/min and 0.04572 mM/min
c(mupirocin) 10.0 mM, c(ATP) 5.0 mM
  initial velocity vo: 0.05427 mM/min and 0.05634 mM/min and 0.05619 mM/min
c(mupirocin) 10.0 mM, c(ATP) 10.0 mM
  initial velocity vo: 0.06096 mM/min and 0.06226 mM/min and 0.06179 mM/min
c(mupirocin) 10.0 mM, c(Ile) 10.0 μM
  initial velocity vo: 0.00446 mM/min and 0.00532 mM/min and 0.0043 mM/min
c(mupirocin) 10.0 mM, c(Ile) 20.0 μM
  initial velocity vo: 0.0078 mM/min and 0.01029 mM/min and 0.0074 mM/min
c(mupirocin) 10.0 mM, c(Ile) 40.0 μM
  initial velocity vo: 0.01449 mM/min and 0.016 mM/min and 0.01446 mM/min
c(mupirocin) 10.0 mM, c(Ile) 80.0 μM
  initial velocity vo: 0.02234 mM/min and 0.02409 mM/min and 0.02227 mM/min
c(mupirocin) 15.0 mM, c(ATP) 1.0 mM
  initial velocity vo: 0.02381 mM/min and 0.02402 mM/min and 0.0242 mM/min
c(mupirocin) 15.0 mM, c(ATP) 2.5 mM
  initial velocity vo: 0.03988 mM/min and 0.03998 mM/min and 0.04105 mM/min
c(mupirocin) 15.0 mM, c(ATP) 5.0 mM
  initial velocity vo: 0.05025 mM/min and 0.05034 mM/min and 0.05209 mM/min
c(mupirocin) 15.0 mM, c(ATP) 10.0 mM
  initial velocity vo: 0.0561 mM/min and 0.05663 mM/min and 0.05737 mM/min
c(mupirocin) 20.0 mM, c(ATP) 1.0 mM
  initial velocity vo: 0.02027 mM/min and 0.02047 mM/min and 0.01966 mM/min
c(mupirocin) 20.0 mM, c(ATP) 2.5 mM
  initial velocity vo: 0.03606 mM/min and 0.03686 mM/min and 0.03693 mM/min
c(mupirocin) 20.0 mM, c(ATP) 5.0 mM
  initial velocity vo: 0.04674 mM/min and 0.0476 mM/min and 0.04884 mM/min
c(mupirocin) 20.0 mM, c(ATP) 10.0 mM
  initial velocity vo: 0.05461 mM/min and 0.05589 mM/min and 0.05542 mM/min
c(mupirocin) 25 mM, c(ATP) 1.0 mM
  initial velocity vo: 0.01716 mM/min and 0.01763 mM/min and 0.01741 mM/min
c(mupirocin) 25 mM, c(ATP) 2.5 mM
  initial velocity vo: 0.03106 mM/min and 0.033 mM/min and 0.02877 mM/min
c(mupirocin) 25 mM, c(ATP) 5.0 mM
  initial velocity vo: 0.0424 mM/min and 0.04408 mM/min and 0.04201 mM/min
c(mupirocin) 25 mM, c(ATP) 10.0 mM
  initial velocity vo: 0.05204 mM/min and 0.0507 mM/min and 0.05392 mM/min
c(mupirocin) 25.0 mM, c(Ile) 10.0 μM
  initial velocity vo: 0.003 mM/min and 0.0032 mM/min and 0.00312 mM/min
c(mupirocin) 25.0 mM, c(Ile) 20.0 μM
  initial velocity vo: 0.0036 mM/min and 0.0044 mM/min and 0.00399 mM/min
c(mupirocin) 25.0 mM, c(Ile) 40.0 μM
  initial velocity vo: 0.0074 mM/min and 0.0071 mM/min and 0.00814 mM/min
c(mupirocin) 25.0 mM, c(Ile) 80.0 μM
  initial velocity vo: 0.0137 mM/min
Mupirocin inhibition towards Ile, GraphPad Prism output, Repl1-Repl3, read-out: KI, single replicates
  Ki: 7.22 mM and 6.75 mM and 5.95 mM
